Results reported in US10377778B2, “Lead and thorium compounds” (Sciencons AS, priority 2017, dated 2019).

How the values were obtained:
[1] = Stability testing of ^212Pb-labeled ligands in vitro (TLC radiochemical purity in PBS and FBS); format: physicochemical; conditions: 37° C.
Protocol: Thin layer chromatography (TLC) was performed using chromatography strips (model #150-772, Biodex Medical Systems Inc, Shirley, N.Y., USA). A formulation buffer (FB) consisting of 7.5% human serum albumin and 5 mM EDTA in DPBS and adjusted to approximately pH 7 with NaOH was mixed with the antibody conjugates in ratio 2:1 for at least 5 minutes before application to the strips to determine free radionuclide. A small beaker with about 0.5 ml of 0.9% NaCl was used to place strips with a sample spot in. To the strip was typically added 1-4 μl of sample at approximately 10% above the bottom of the strip. After the solvent front had moved to about 20% from the top of the strip, the strip was cut in half and each half was placed in a 5 ml test tube for counting. In this system radiolabeled ligand stays at the bottom half while radionuclide complexed with EDTA migrates to the upper half. It was verified that free cations of both ^212Pb and ^177Lu would complex with EDTA and moved to the top.
TLC analyses were performed at 1 h, 4 h, 24 h and 48 h of incubation. […]

C4-2 cells = assay: Radiolytic stability: cell binding fraction after storage in ^224Ra solution; parameters: species or system human
Protocol: Initial activity in the solution was about 5 MBq/ml causing an absorbed radiation dose to the solution of about 1.8 Gy after 24 h and 3.3 Gy after 48 hours. The data (Table 2) indicate a slight decline at the longest exposure time but in general a relatively strong radiolytic resistance of the ligand was observed, which is compatible with centralized production and shipment to the end user ^224Ra-based generator solution with or without removal of ^224Ra prior to the administration of product.

[2] = system: C4-2 PSMA-positive xenografts; assay: Biodistribution of radiolabelled ligands (^224Ra/^212Pb solutions, ^177Lu) in nude mice with C4-2 xenografts
Protocol: Each group usually consisted of three mice. […] Approximately 16 kBq of ^224Ra/^212Pb was injected in each animal, i.e., approximately 0.2 nmol of ligand per mouse. Animals were given anaesthesia and sacrificed by cervical dislocation followed by dissection and harvesting of tissue-, blood- and urine samples. The samples were weighed and counted on a gamma counter.
Three mice in each group. […] The molar concentration was the same for both products, i.e., 12.5 nmol per MBq. Approximately 16 kBq of ^224Ra/^212Pb was injected in each animal, i.e., approximately 0.2 nmol of ligand per mouse. Animals were given anaesthesia and sacrificed by cervical dislocation followed by dissection and harvesting of tissue-, blood- and urine samples. The samples were weighed and counted on a gamma counter.
Methods: Tumor and kidney uptake of ^212Pb-labeled p-SCN-Bn-TCMC-PSMA ligand 1 and ^177Lu-labeled PSMA-617 was compared at 1 hours and 4 hours after administration of the products by intravenous injection into nude mice with C4-2 xenografts as described in Example 9.

[3] = 4 h after i.v. injection, ^224Ra/^212Pb solution

## NC(=O)CN1CCN(CC(N)=O)CCN(CC(N)=O)C(Cc2ccc(NC(=S)NCC3CCC(C(=O)NC(Cc4ccc5ccccc5c4)C(=O)NCCCCC(NC(=O)NC(CCC(=O)O)C(=O)O)C(=O)O)CC3)cc2)CN(CC(N)=O)CC1.[212Pb+2] (centres unmarked) [^212Pb-p-SCN-Bn-TCMC-PSMA ligand 1]
[1]; FBS, 1 h since start of incubation, in ^224Ra/^212Pb solution
  Radiochemical purity: 93.50%
[1]; FBS, 4 h
  Radiochemical purity: 94.18%
[1]; FBS, 24 h
  Radiochemical purity: 93.54%
[1]; FBS, 48 h
  Radiochemical purity: 90.81%
[1]; PBS, 1 h since start of incubation, in ^224Ra/^212Pb solution
  Radiochemical purity: 93.26%
[1]; PBS, 4 h
  Radiochemical purity: 95.04%
[1]; PBS, 24 h
  Radiochemical purity: 95.00%
[1]; PBS, 48 h
  Radiochemical purity: 95.11%
C4-2 cells; kept in ^224Ra solution 4 h
  Cell binding fraction: 52.3%
C4-2 cells; kept in ^224Ra solution 24 h (about 1.8 Gy)
  Cell binding fraction: 48.16%
C4-2 cells; kept in ^224Ra solution 48 h (about 3.3 Gy)
  Cell binding fraction: 37.18%
[2]; 1-hour point after administration
  Average tumor-to-kidney ratio: 0.40
[2]; 4-hour timepoint
  Tumor-to-kidney ratio: 1.7
[2]; [3]
  Uptake ratio to ^212Pb-PSMA-617, blood: 1.21
  Uptake ratio to ^212Pb-PSMA-617, kidneys: 0.20
  Uptake ratio to ^212Pb-PSMA-617, liver: 2.67
  Uptake ratio to ^212Pb-PSMA-617, spleen: 0.71
[2]; 4 h after i.v. injection, ^224Ra/^212Pb solution, about 0.2 nmol ligand per mouse
  Uptake ratio to ^212Pb-PSMA-617, tumor: 1.35
[2]; 4 hours after i.v. injection
  Kidney uptake (average): 8.1 % ID/g
  Tumor uptake (average): 13.9 % ID/g
